Measured values as given in patent publication US12275731B2, “Azaindole inhibitors of wild-type and mutant forms of LRRK2” (DANA-FARBER CANCER INSTITUTE, INC., priority 2018, dated 2025).

Experiments:
Test in all cases: KinomeScan profiling
Format in all cases: binding
LIMK1 = LIMK1 (Homo sapiens, UniProt P53667); settings: LIMK1, 1 μM; read-out: % control
Summary of the method: (§1)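 Single-point competition binding screen: 1 μM, DMSO, 468 kinases. Results reported as % control from RLU, normalised to DMSO and positive-control wells. Activity threshold: <35% control.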

ERK4 = ERK4 (Homo sapiens, UniProt P31152); settings: ERK4, 1 μM; read-out: % control
Sequence of ERK4 (P31152 whole entry): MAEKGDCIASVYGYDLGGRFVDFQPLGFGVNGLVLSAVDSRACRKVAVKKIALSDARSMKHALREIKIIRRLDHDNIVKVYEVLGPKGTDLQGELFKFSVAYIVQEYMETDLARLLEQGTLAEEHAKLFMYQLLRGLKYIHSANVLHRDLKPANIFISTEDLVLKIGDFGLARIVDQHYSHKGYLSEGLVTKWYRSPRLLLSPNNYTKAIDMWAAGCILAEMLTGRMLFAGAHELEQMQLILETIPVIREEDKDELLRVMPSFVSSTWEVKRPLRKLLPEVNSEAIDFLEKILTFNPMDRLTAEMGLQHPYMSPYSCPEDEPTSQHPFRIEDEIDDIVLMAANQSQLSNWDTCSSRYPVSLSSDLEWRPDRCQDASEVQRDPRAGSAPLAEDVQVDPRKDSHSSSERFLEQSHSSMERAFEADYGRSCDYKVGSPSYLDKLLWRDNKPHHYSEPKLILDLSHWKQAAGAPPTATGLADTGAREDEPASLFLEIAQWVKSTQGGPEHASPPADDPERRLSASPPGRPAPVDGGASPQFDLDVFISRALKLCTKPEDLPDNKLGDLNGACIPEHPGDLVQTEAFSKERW
Summary of the method: as §1

INSRR = target: T1, INSRR (Homo sapiens, UniProt P14616); settings: read-out: % control
T1 construct: purchased KinomeScan®
T1 sequence (P14616 27-1297): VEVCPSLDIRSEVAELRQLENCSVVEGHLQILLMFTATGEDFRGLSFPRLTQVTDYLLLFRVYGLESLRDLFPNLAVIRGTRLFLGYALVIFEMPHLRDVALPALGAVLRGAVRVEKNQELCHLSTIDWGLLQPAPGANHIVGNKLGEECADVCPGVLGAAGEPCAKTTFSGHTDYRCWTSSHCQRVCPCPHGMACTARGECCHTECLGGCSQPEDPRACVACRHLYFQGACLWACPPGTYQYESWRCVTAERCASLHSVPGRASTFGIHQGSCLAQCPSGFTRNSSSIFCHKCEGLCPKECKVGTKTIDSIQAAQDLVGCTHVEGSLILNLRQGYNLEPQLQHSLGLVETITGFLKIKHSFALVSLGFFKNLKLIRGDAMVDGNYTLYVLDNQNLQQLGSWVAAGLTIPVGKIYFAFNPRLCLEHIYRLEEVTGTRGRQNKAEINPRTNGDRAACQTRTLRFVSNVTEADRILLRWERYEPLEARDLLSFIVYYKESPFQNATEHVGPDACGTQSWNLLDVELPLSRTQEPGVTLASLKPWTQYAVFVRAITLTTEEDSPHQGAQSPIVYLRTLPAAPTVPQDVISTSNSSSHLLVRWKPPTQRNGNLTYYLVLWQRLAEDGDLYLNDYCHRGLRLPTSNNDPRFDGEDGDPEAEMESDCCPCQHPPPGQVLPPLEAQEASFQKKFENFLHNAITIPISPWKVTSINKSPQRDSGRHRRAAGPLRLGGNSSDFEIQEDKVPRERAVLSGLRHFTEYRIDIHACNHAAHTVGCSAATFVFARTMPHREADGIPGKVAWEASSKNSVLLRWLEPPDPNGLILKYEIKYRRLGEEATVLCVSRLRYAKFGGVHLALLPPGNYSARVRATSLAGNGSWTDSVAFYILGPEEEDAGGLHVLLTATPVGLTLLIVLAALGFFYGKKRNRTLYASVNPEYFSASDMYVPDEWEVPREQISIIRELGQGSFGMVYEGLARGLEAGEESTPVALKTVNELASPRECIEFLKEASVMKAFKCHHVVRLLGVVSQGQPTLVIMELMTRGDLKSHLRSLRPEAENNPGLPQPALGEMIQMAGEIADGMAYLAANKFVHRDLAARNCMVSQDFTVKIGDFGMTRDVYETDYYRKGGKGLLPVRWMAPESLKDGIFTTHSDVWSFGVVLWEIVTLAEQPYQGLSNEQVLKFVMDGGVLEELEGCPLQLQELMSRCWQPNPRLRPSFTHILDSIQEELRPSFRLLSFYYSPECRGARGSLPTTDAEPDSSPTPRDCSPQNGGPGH
Summary of the method: as §1

MINK = MINK (Homo sapiens, UniProt Q8N4C8); settings: read-out: % control
Summary of the method: as §1

ACVRL1 = target: T2, ACVRL1 (Homo sapiens, UniProt P37023); settings: ACVRL1, 1 μM; read-out: % control
T2 construct: purchased KinomeScan®
Summary of the method: as §1

FGR = FGR (Homo sapiens, UniProt P09769); settings: read-out: % control
Summary of the method: as §1

PKN1 = PKN1 (Homo sapiens, UniProt Q16512); settings: PKN1, 1 μM; read-out: % control
Sequence of PKN1 (Q16512 whole entry): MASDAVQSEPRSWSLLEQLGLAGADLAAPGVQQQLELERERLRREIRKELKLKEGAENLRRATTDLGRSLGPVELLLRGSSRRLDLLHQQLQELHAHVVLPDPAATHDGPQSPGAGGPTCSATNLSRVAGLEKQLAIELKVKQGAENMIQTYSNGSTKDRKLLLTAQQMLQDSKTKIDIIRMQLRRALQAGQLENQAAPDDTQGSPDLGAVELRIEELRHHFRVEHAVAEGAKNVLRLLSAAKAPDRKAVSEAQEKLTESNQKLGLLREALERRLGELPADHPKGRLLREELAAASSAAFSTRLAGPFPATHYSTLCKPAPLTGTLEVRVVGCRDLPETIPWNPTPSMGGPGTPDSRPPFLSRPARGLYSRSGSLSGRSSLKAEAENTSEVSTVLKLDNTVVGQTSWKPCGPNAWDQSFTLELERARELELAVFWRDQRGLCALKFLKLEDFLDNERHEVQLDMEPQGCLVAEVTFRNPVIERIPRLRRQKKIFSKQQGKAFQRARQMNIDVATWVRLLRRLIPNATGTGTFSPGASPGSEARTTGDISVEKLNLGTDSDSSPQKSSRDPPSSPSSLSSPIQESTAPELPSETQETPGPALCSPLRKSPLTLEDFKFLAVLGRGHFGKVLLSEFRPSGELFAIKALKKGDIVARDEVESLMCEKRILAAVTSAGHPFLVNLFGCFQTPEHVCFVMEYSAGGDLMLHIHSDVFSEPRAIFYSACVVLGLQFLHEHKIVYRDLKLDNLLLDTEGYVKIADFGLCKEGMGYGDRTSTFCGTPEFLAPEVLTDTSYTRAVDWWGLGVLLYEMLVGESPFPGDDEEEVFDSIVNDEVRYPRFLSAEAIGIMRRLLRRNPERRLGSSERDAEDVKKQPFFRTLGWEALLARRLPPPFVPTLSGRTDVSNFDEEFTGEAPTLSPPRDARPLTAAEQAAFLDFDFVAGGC
Summary of the method: as §1

MAP3K2 = target: T3, MAP3K2 (Homo sapiens, UniProt Q9Y2U5); settings: MAP3K2, 1 μM; read-out: % control
T3 sequence (Q9Y2U5 1-619): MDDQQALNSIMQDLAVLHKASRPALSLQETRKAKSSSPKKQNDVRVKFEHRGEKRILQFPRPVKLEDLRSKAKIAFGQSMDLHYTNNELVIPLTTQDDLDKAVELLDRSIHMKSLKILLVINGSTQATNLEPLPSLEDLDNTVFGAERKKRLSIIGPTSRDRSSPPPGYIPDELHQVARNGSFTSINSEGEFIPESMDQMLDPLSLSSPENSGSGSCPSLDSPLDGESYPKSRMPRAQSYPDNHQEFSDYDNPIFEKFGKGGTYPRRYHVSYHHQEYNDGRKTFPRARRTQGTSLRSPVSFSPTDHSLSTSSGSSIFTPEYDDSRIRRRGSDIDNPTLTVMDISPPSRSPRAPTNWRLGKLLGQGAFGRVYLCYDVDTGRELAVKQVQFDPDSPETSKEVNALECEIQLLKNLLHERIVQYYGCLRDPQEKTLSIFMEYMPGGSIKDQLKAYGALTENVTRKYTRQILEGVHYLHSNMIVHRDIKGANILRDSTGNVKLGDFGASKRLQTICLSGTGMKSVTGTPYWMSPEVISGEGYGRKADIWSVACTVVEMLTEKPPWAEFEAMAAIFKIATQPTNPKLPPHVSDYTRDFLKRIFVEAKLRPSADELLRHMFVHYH
Summary of the method: as §1

DYRK1A = DYRK1A (Homo sapiens, UniProt Q13627); settings: read-out: % control
Summary of the method: as §1

MAP3K1 = MAP3K1 (Homo sapiens, UniProt Q13233); settings: MAP3K1, 1 μM; read-out: % control
Summary of the method: as §1

CDK9 = CDK9 (Homo sapiens, UniProt P50750); settings: CDK9, 1 μM; read-out: % control
Sequence of CDK9 (P50750 whole entry): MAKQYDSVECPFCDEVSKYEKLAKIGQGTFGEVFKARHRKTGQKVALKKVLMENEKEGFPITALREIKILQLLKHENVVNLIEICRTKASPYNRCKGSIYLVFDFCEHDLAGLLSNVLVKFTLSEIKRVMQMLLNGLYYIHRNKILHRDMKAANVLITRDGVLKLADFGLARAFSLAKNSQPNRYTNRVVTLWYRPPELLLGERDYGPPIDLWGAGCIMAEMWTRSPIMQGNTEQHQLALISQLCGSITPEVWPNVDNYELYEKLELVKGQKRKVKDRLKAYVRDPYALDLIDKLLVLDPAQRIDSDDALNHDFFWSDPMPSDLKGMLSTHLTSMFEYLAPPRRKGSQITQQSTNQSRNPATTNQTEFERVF
Summary of the method: as §1

AURKA = target: T4, AURKA (Homo sapiens, UniProt O14965); settings: read-out: % control
T4 construct: purchased KinomeScan®
T4 sequence (O14965 1-403): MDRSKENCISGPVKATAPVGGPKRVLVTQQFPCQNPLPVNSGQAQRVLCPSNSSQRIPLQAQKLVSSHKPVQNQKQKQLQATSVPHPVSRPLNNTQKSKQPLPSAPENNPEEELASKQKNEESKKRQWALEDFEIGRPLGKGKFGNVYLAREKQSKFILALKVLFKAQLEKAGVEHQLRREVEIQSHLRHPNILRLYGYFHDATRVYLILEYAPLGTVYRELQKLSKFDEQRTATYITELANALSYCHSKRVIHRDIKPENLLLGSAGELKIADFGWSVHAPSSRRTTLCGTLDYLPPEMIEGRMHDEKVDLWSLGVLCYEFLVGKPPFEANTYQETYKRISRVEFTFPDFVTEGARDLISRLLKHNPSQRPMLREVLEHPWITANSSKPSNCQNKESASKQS
Summary of the method: as §1

CAMKK1 = CAMKK1 (Homo sapiens, UniProt Q8N5S9); settings: CAMKK1, 1 μM; read-out: % control
Sequence of CAMKK1 (Q8N5S9 whole entry): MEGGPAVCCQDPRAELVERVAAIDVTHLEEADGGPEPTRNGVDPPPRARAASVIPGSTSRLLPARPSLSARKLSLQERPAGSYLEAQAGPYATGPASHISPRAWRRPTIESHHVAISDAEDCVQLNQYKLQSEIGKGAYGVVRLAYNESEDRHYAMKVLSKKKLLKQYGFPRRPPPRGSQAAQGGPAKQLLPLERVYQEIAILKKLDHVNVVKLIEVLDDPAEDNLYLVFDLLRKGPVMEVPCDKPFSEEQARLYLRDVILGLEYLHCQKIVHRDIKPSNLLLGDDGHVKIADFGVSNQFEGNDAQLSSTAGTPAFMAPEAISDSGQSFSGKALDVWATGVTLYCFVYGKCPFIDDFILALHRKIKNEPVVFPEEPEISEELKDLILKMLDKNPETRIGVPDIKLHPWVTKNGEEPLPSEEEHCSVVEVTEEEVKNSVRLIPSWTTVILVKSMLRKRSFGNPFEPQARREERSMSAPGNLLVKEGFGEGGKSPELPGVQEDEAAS
Summary of the method: as §1

MST4 = MST4 (Homo sapiens, UniProt Q9P289); settings: MST4, 1 μM; read-out: % control
Summary of the method: as §1

SRPK3 = target: T5, SRPK3 (Homo sapiens, UniProt Q9UPE1); settings: SRPK3, 1 μM; read-out: % control
T5 construct: purchased KinomeScan® (panel service)
T5 sequence (Q9UPE1 whole entry): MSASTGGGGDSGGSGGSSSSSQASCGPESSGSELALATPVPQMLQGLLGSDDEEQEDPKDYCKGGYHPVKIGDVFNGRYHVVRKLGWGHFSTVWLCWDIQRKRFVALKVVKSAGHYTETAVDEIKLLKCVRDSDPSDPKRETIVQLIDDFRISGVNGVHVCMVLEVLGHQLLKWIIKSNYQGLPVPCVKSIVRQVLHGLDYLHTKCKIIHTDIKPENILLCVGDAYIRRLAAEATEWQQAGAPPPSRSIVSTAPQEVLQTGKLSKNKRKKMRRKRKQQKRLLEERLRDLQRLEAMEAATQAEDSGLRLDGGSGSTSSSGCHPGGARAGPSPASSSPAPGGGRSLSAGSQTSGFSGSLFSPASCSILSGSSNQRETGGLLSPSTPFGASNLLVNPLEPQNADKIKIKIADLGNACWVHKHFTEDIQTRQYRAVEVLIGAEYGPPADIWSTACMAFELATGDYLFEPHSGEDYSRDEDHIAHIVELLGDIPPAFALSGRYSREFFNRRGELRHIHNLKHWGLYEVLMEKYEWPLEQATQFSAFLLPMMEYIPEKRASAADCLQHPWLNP
Summary of the method: as §1

KIT(V559D, V654A) = target: T6, KIT(V559D, V654A) (Homo sapiens, UniProt P10721, V559D/V654A); settings: read-out: % control
T6 construct: purchased KinomeScan®
Summary of the method: as §1

ERK3 = ERK3 (Homo sapiens, UniProt Q16659); settings: ERK3, 1 μM; read-out: % control
Sequence of ERK3 (Q16659 whole entry): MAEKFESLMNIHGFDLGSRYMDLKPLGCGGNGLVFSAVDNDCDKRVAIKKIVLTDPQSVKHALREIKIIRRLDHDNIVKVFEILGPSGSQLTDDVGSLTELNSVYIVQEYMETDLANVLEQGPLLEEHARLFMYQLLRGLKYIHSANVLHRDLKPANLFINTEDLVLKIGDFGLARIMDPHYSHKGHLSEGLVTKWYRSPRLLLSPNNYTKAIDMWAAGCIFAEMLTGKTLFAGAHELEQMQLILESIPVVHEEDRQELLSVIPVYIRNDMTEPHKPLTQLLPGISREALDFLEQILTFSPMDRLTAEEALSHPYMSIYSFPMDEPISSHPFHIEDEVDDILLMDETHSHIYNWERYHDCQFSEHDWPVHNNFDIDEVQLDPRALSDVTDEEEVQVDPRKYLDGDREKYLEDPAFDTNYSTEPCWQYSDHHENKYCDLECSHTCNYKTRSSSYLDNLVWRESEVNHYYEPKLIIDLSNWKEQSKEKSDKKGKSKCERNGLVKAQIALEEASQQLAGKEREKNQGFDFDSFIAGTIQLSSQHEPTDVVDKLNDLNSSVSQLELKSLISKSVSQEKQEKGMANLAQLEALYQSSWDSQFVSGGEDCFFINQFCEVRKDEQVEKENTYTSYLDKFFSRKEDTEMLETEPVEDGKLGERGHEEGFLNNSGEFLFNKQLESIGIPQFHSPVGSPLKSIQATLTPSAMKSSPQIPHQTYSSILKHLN
Summary of the method: as §1

ROCK1 = ROCK1 (Homo sapiens, UniProt Q13464); settings: ROCK1, 1 μM; read-out: % control
Summary of the method: as §1

MEK1 = MEK1 (Homo sapiens, UniProt Q02750); settings: MEK1, 1 μM; read-out: % control
Summary of the method: as §1

FLT1 = FLT1 (Homo sapiens, UniProt P17948); settings: FLT1, 1 μM; read-out: % control
Summary of the method: as §1

SMILES	remaining binding at 1 µM (LIMK1) [%]	remaining binding at 1 µM (ERK4) [%]	remaining binding at 1 µM (INSRR) [%]	remaining binding at 1 µM (MINK) [%]	remaining binding at 1 µM (ACVRL1) [%]	remaining binding at 1 µM (FGR) [%]	remaining binding at 1 µM (PKN1) [%]	remaining binding at 1 µM (MAP3K2) [%]	remaining binding at 1 µM (DYRK1A) [%]	remaining binding at 1 µM (MAP3K1) [%]	remaining binding at 1 µM (CDK9) [%]	remaining binding at 1 µM (AURKA) [%]	remaining binding at 1 µM (CAMKK1) [%]	remaining binding at 1 µM (MST4) [%]	remaining binding at 1 µM (SRPK3) [%]	remaining binding at 1 µM (KIT(V559D, V654A)) [%]	remaining binding at 1 µM (ERK3) [%]	remaining binding at 1 µM (ROCK1) [%]	remaining binding at 1 µM (MEK1) [%]	remaining binding at 1 µM (FLT1) [%]
CNc1c(-c2cnn([C@H]3CCN(C(C)=O)C[C@@H]3F)c2)cnc2[nH]cc(Cl)c12 [Compound 77, 1-((3S,4S)-4-(4-(3-chloro-4-(methylamino)-1H-pyrrolo[2,3-b]pyridin-5-yl)-1H-pyrazol-1-yl)-3-fluoropiperidin-1-yl)ethan-1-one]	100	90	92	17	100	80	100	25	58	56	83	35	74	67	16	53	87	20	29	21
CNc1c(-c2ccc(C(=O)N3CCC(N4CCOCC4)CC3)cc2)cnc2[nH]cc(Cl)c12 [Compound 96, (4-(3-chloro-4-(methylamino)-1H-pyrrolo[2,3-b]pyridin-5-yl)phenyl)(4-morpholinopiperidin-1-yl)methanone]	100	94	96	6	100	95	95	29	69	73	87	36	78	99	17	94	85	4.7	12	33
O=C(c1ccc(-c2cnc3[nH]cc(Cl)c3c2NC2CCCC2)cc1)N1CCC(N2CCOCC2)CC1 [Compound 101, (4-(3-chloro-4-(cyclopentylamino)-1H-pyrrolo[2,3-b]pyridin-5-yl)phenyl)(4-morpholinopiperidin-1-yl)methanone]	76	93	84	62	100	94	100	35	4	100	96	82	87	100	9.9	100	100	63	94	51
